What was measured:
full-length human HDAC11 [1] = target: T1, full-length human HDAC11 (Homo sapiens (Human), UniProt Q96DB2); assay: Probe binding HDAC11 time resolved fluorescence (TRF) assay; details: Table 2, read-out: HDAC11 IC50 Range
Experimental: The probe binding HDAC11 assay was performed using a time resolved fluorescence (TRF) assay format. Recombinant N-terminal GST tag full-length human HD AC 11 was expressed and purified from baculovirus in Sf9 insect cells (SignalChem, #H93-30G-1000). […] 4 μL of 2× probe and 2× anti-GST Terbium (Cisbio, #61GSTXLB) was added to assay plates followed by 4 μL of 2×HDAC11.
Data from HD AC 11 Assays were reported as percent inhibition (inh) compared with control wells based on the following equation: % inh=1−((FLU−AveLow)/(AveHigh−AveLow)) where FLU=measured time resolved fluorescence. AveLow=average time resolved fluorescence of no enzyme control (n=32). AveHigh=average time resolved fluorescence of DMSO control (n=32). IC50 values were determined by curve fitting of the standard 4 parameter logistic fitting algorithm included in the Activity Base software package: IDBS XE Designer Model205. Data is fitted using the Levenburg Marquardt algorithm.

full-length human HDAC11 [2] = target: T1, full-length human HDAC11; assay: HDAC11 deacetylase electrophoretic mobility shift assay (Nanosyn); assay type: biochemical; details: for HDAC11 potency, in words: comparison with parent or lead compound; for IC50: mobility shift assay, Table 5, read-out: HDAC11 IC50
Experimental: The measurement of HD AC 11 deacetylase activity was performed using an electrophoretic mobility shift assay by Nanosyn (Santa Clara, Calif.). Full length human recombinant HD AC 11 protein was expressed in baculoviral system and purified by affinity chromatography. The enzymatic reactions were assembled in 384 well plates in a total volume of 25 μL in a reaction buffer composing: 100 mM HEPES, pH 7.5, 25 mM KCl, 0.1% bovine serum albumin, 0.01% Triton X-100, 1% DMSO (from compounds), 2 μM of the fluorescently labeled peptide substrate and enzyme. The enzyme was added at a final concentration of 10 nM. The peptide substrate FAM-RHKK(tri-fluor-Ac)—NH2 was used. The compounds were tested at 12 concentrations spaced by 3× dilution intervals. Negative control samples (0%-inhibition in the absence of inhibitor) and positive control samples (100%-inhibition) were assembled in replicates of four in each assay plate. The reactions were incubated at 25° C. and quenched by the addition of 45 μL of termination buffer (100 mM HEPES, pH 7.5, 0.01% Triton X-100, 0.05% SDS).
The terminated assay plates were analyzed on LabChip® 3000 microfluidic electrophoresis instrument (Perkin Elmer/Caliper Life Sciences). The fluorescence intensity of the electrophoretically separated de-acetylated product and substrate peptide was measured. Activity in each sample was determined as the product to sum ratio (PSR): P/(S+P), where P is the peak height of the product peptide and S is the peak height of the substrate peptide. Percent inhibition (Pinh) is determined using the following equation: Pinh=(PSR0%−PSRinh)/(PSR0%−PSR100%)*100, where PSRinh, is the product sum ratio in the presence of inhibitor, PSR0% is the average product sum ration in the absence of inhibitor and PSR100% is the average product sum ratio in 100%-inhibition control samples. The IC50 values of inhibitors were determined by fitting the percent inhibition curves with 4 parameter dose-response model using XLfit 4 software.

HDAC11 = HDAC11 (Homo sapiens (Human), UniProt Q96DB2); assay: Lipophilic efficiency (pIC50 HDAC11 - clogD7.4); details: pIC50 HDAC11 - clogD7.4, Table 5
Chain of HDAC11 (Q96DB2 whole entry): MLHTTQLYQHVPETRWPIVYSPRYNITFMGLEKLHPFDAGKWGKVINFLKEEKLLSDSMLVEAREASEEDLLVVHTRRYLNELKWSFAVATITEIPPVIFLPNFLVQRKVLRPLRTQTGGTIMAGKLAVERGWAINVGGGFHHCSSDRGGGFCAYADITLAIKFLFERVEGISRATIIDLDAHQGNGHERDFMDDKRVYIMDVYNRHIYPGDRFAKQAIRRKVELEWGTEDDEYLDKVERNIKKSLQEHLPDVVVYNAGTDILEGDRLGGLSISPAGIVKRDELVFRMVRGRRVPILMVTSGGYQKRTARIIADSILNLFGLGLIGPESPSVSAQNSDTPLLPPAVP

[3] = In vitro intrinsic clearance after incubation with mouse liver microsomes; assay type: in vitro ADME; details: for microsomal CLint: Table 5; for microsomal stability, in words: comparison

T1 sequence (Q96DB2 whole entry): as above

With `Cc1nc(N2Cc3cccc(C(=O)NO)c3C2)[nH]c1C.Cl` [Compound 1-2, 2-(4,5-dimethyl-1H-imidazol-2-yl)-N-hydroxyisoindoline-4-carboxamide hydrochloride] the IC50 (full-length human HDAC11 [1]) was over 1 µM, the “HDAC11 potency, in words” value (full-length human HDAC11 [2]) was “loss of potency” and the IC50 (full-length human HDAC11 [2]) was over 1 µM. For the same molecule, the LipE (HDAC11) was “++ (indicates 5.5<LipE≤6.5)”, the microsomal CLint [3] was 51 to 100 µL/min/mg and the “microsomal stability, in words” value [3] was “loss of potency and microsomal stability”.

In the case of `Cl.O=C(NO)c1cccc2c1CN(c1nc3c([nH]1)CCCC3)C2` [Compound 1-4, N-hydroxy-2-(4,5,6,7-tetrahydro-1H-benzo[d]imidazol-2-yl)isoindoline-4-carboxamide hydrochloride], the IC50 (full-length human HDAC11 [1]) is reported as over 1 µM, the “HDAC11 potency, in words” value (full-length human HDAC11 [2]) is reported as “loss of potency” and the IC50 (full-length human HDAC11 [2]) is reported as over 1 µM. For the same molecule, the LipE (HDAC11) was “++ (indicates 5.5<LipE≤6.5)”, the microsomal CLint [3] was over 100 µL/min/mg and the “microsomal stability, in words” value [3] was “loss of potency and microsomal stability”.

With `Cl.O=C(NO)c1cccc2c1CN(c1ccc3ccccc3n1)C2` [Compound 7-2, N-hydroxy-2-(quinolin-2-yl)isoindoline-4-carboxamide hydrochloride] the IC50 (full-length human HDAC11 [1]) was under 0.5 µM, the “HDAC11 potency, in words” value (full-length human HDAC11 [2]) was “improved potency” and the IC50 (full-length human HDAC11 [2]) was under 0.5 µM. The LipE (HDAC11) was “+ (indicates LipE≤5.5)”, the microsomal CLint [3] was 51 to 100 µL/min/mg and the “microsomal stability, in words” value [3] was “significant loss of microsomal stability”.

In the case of `O=C(NO)c1cccc2c1CN(c1nc3ccccc3s1)C2` [Compound 7-4, 2-(benzo[d]thiazol-2-yl)-N-hydroxyisoindoline-4-carboxamide], the IC50 (full-length human HDAC11 [1]) is reported as under 0.5 µM, the “HDAC11 potency, in words” value (full-length human HDAC11 [2]) is reported as “improved potency” and the IC50 (full-length human HDAC11 [2]) is reported as under 0.5 µM. The LipE (HDAC11) was “+ (indicates LipE≤5.5)”, the microsomal CLint [3] was over 100 µL/min/mg and the “microsomal stability, in words” value [3] was “significant loss of microsomal stability”.

In the case of `O=C(NO)c1cccc2c1CN(c1nc3ccc(C(F)(F)F)cc3[nH]1)C2` [Compound 12-1, N-hydroxy-2-(6-(trifluoromethyl)-1H-benzo[d]imidazol-2-yl)isoindoline-4-carboxamide], the IC50 (full-length human HDAC11 [1]) is reported as under 0.5 µM, the “HDAC11 potency, in words” value (full-length human HDAC11 [2]) is reported as “significant increase in both potency and LipE” and the IC50 (full-length human HDAC11 [2]) is reported as under 0.5 µM. For the same molecule, the LipE (HDAC11) was “++ (indicates 5.5<LipE≤6.5)”, the microsomal CLint [3] was over 100 µL/min/mg and the “microsomal stability, in words” value [3] was “loss of microsomal stability”.

For `O=C(NO)c1cccc2c1CN(c1nc3ccccc3o1)C2` [Compound 15-1, 2-(benzo[d]oxazol-2-yl)-N-hydroxyisoindoline-4-carboxamide], the IC50 (full-length human HDAC11 [1]) was under 0.5 µM, the “HDAC11 potency, in words” value (full-length human HDAC11 [2]) was “improved potency” and the IC50 (full-length human HDAC11 [2]) was under 0.5 µM. The LipE (HDAC11) was “+++ (indicates a LipE>6.5)”, the microsomal CLint [3] was over 100 µL/min/mg and the “microsomal stability, in words” value [3] was “significant loss of microsomal stability”.

Molecule `O=C(NO)c1cccc2c1CN(c1nc3cccc(-c4ccccc4)c3[nH]1)C2` [Compound 35-2, N-hydroxy-2-(7-phenyl-1H-benzo[d]imidazol-2-yl)isoindoline-4-carboxamide] has an IC50 (full-length human HDAC11 [1]) of over 1 µM.

With `O=C(NO)c1cccc2c1CN(c1nc3ccccc3o1)C2=O` [Compound 36-1, 2-(benzo[d]oxazol-2-yl)-N-hydroxy-1-oxoisoindoline-4-carboxamide] the IC50 (full-length human HDAC11 [1]) was over 1 µM.

Work on `O=C(NO)c1cccc2c1CN(c1nc3cc(C(F)(F)F)ccc3o1)C2=O` [Compound 36-2, N-hydroxy-1-oxo-2-(5-(trifluoromethyl)benzo[d]oxazol-2-yl)isoindoline-4-carboxamide] yielded an IC50 (full-length human HDAC11 [1]) of under 0.5 µM.

`O=C(NO)c1cccc2cc(-c3ccc(C(F)(F)F)cc3)[nH]c12` [Compound 37-1, N-hydroxy-2-(4-(trifluoromethyl)phenyl)-1H-indole-7-carboxamide] gave an IC50 (full-length human HDAC11 [1]) of 0.5 to 1 µM.

`O=C(NO)c1cccc2[nH]c(-c3ccc(C(F)(F)F)cc3)cc12` [Compound 37-2, N-hydroxy-2-(4-(trifluoromethyl)phenyl)-1H-indole-4-carboxamide] gave an IC50 (full-length human HDAC11 [1]) of 0.5 to 1 µM.

With `O=C(NO)c1cccc2cc(-c3cnc(C(F)(F)F)cn3)[nH]c12` [Compound 37-3, N-hydroxy-2-(5-(trifluoromethyl)pyrazin-2-yl)-1H-indole-7-carboxamide] the IC50 (full-length human HDAC11 [1]) was under 0.5 µM.

Molecule `O=C(NO)c1cccc2[nH]c(-c3cnc(C(F)(F)F)cn3)cc12` [Compound 37-4, N-hydroxy-2-(5-(trifluoromethyl)pyrazin-2-yl)-1H-indole-4-carboxamide] has an IC50 (full-length human HDAC11 [1]) of under 0.5 µM.

`O=C(NO)c1cccc2c1NC(c1ccc(C(F)(F)F)cc1)C2` (stereo not shown) [Compound 38-1, N-hydroxy-2-(4-(trifluoromethyl)phenyl)indoline-7-carboxamide] showed an IC50 (full-length human HDAC11 [1]) of 0.5 to 1 µM.

`O=C(NO)c1cccc2c1CC(c1ccc(C(F)(F)F)cc1)N2` (stereo not shown) [Compound 38-2, N-hydroxy-2-(4-(trifluoromethyl)phenyl)indoline-4-carboxamide] gave an IC50 (full-length human HDAC11 [1]) of over 1 µM.

In the case of `O=C(NO)c1cccc2c1N[C@@H](c1ccc(C(F)(F)F)cc1)C2` [Compound 39-1, (R)—N-hydroxy-2-(4-(trifluoromethyl)phenyl)indoline-7-carboxamide], the IC50 (full-length human HDAC11 [1]) is reported as under 0.5 µM.

`O=C(NO)c1cccc2c1N[C@H](c1ccc(C(F)(F)F)cc1)C2` [Compound 39-2, (S)—N-hydroxy-2-(4-(trifluoromethyl)phenyl)indoline-7-carboxamide] showed an IC50 (full-length human HDAC11 [1]) of over 1 µM.

`CC1(C)c2cccc(C(=O)NO)c2N[C@H]1c1ccc(C(F)(F)F)cn1` [Compound 40-1, (R)—N-hydroxy-3,3-dimethyl-2-(5-(trifluoromethyl)pyridin-2-yl)indoline-7-carboxamide] showed an IC50 (full-length human HDAC11 [1]) of over 1 µM.

`CC1(C)c2cccc(C(=O)NO)c2N[C@@H]1c1ccc(C(F)(F)F)cn1` [Compound 40-2, (S)—N-hydroxy-3,3-dimethyl-2-(5-(trifluoromethyl)pyridin-2-yl)indoline-7-carboxamide] gave an IC50 (full-length human HDAC11 [1]) of under 0.5 µM.

With `CC1(C)c2cccc(C(=O)NO)c2N[C@H]1c1cnc(C(F)(F)F)cn1` [Compound 40-3, (R)-N-hydroxy-3,3-dimethyl-2-(5-(trifluoromethyl)pyrazin-2-yl)indoline-7-carboxamide] the IC50 (full-length human HDAC11 [1]) was under 0.5 µM.

`CC1(C)c2cccc(C(=O)NO)c2N[C@@H]1c1cnc(C(F)(F)F)cn1` [Compound 40-4, (S)-N-hydroxy-3,3-dimethyl-2-(5-(trifluoromethyl)pyrazin-2-yl)indoline-7-carboxamide] showed an IC50 (full-length human HDAC11 [1]) of over 1 µM.

`CC1(C)c2cccc(C(=O)NO)c2N[C@H]1c1ccc(C(F)(F)F)cc1` [Compound 40-5, (S)-N-hydroxy-3,3-dimethyl-2-(4-(trifluoromethyl)phenyl)indoline-7-carboxamide] gave an IC50 (full-length human HDAC11 [1]) of 0.5 to 1 µM.

Molecule `CC1(C)c2cccc(C(=O)NO)c2N[C@@H]1c1ccc(C(F)(F)F)cc1` [Compound 40-6, (R)-N-hydroxy-3,3-dimethyl-2-(4-(trifluoromethyl)phenyl)indoline-7-carboxamide] has an IC50 (full-length human HDAC11 [1]) of over 1 µM.

For `O=C(NO)c1cccc2c1CN(C(=O)c1ccccc1)C2` [Compound 41-1, 2-benzoyl-N-hydroxyisoindoline-4-carboxamide], the IC50 (full-length human HDAC11 [1]) was over 1 µM.

In the case of `COc1ccc(CN2Cc3cccc(C(=O)NO)c3C2)cc1` [Compound 41-2, N-hydroxy-2-(4-methoxybenzyl)isoindoline-4-carboxamide], the IC50 (full-length human HDAC11 [1]) is reported as over 1 µM.

Molecule `O=C(NO)c1cccc2c1CN(c1ccccc1)C2` [Compound 42-1, N-hydroxy-2-phenylisoindoline-4-carboxamide] has an IC50 (full-length human HDAC11 [1]) of over 1 µM.

Work on `O=C(NO)c1cccc2c1CN(C1=NC(O)(C(F)(F)F)C(c3ccccc3)=N1)C2` (stereo not shown) [Compound 44-1, N-hydroxy-2-(4-hydroxy-5-phenyl-4-(trifluoromethyl)-4H-imidazol-2-yl)isoindoline-4-carboxamide] yielded an IC50 (full-length human HDAC11 [1]) of over 1 µM.

In the case of `O=C(NO)c1cccc2c1CN(c1cccc(C(F)(F)F)n1)C2` [Compound 45-2, N-hydroxy-2-(6-(trifluoromethyl)pyridin-2-yl)isoindoline-4-carboxamide], the IC50 (full-length human HDAC11 [1]) is reported as over 1 µM.
